Experimental findings from ChEMBL document CHEMBL3044884, “Effect of 6-methoxybenzoxazolin-2-one (MBOA) on the reproduction rate of the grain aphid (Sitobion avenae F.)” (2006) are described below.

Type in all cases: functional
Assay [1] has as its system Sitobion avenae. Description: Insecticidal activity against 1 to 3 day old Sitobion avenae apterous virginoparous nymphs raised on artificial diet exposed to compound at 0.05 mM assessed as intrinsic reproduction rate of increase measured after 4 weeks (reference value: 0.00162 intrinsic reproduction rate of increase).
The test system of assay [2] is Sitobion avenae. Description: Insecticidal activity against 1 to 3 day old Sitobion avenae apterous virginoparous nymphs raised on artificial diet exposed to compound at 0.2 mM assessed as intrinsic reproduction rate of increase measured after 4 weeks (reference value: 0.00162 intrinsic reproduction rate of increase).
Assay [3] has as its system Sitobion avenae. Description: Insecticidal activity against 1 to 3 day old Sitobion avenae apterous virginoparous nymphs raised on artificial diet exposed to compound at 0.5 mM assessed as intrinsic reproduction rate of increase measured after 4 weeks (reference value: 0.00162 intrinsic reproduction rate of increase).
Assay [4] deals with Sitobion avenae. Description: Insecticidal activity against 1 to 3 day old Sitobion avenae apterous virginoparous nymphs raised on artificial diet exposed to compound at 0.3 mM assessed as intrinsic reproduction rate of increase measured after 4 weeks (reference value: 0.00162 intrinsic reproduction rate of increase).
Assay [5] has as its system Sitobion avenae. Description: Insecticidal activity against 1 to 3 day old Sitobion avenae apterous virginoparous nymphs raised on artificial diet exposed to compound at 0.1 mM assessed as intrinsic reproduction rate of increase measured after 4 weeks (reference value: 0.00162 intrinsic reproduction rate of increase).
Assay [6] concerns Sitobion avenae. Description: Insecticidal activity against 1 to 3 day old Sitobion avenae apterous virginoparous nymphs raised on artificial diet exposed to compound at 8 mM assessed as intrinsic reproduction rate of increase measured after 4 weeks (reference value: 0.00162 intrinsic reproduction rate of increase).

With `COc1ccc2[nH]c(=O)oc2c1` [COIXOL], the Activity in the assay with Sitobion avenae [1] is on record as 0.0015; in the assay with Sitobion avenae [2] it was 0.00139; in the assay with Sitobion avenae [3], 0.00048; in the assay on Sitobion avenae [4], 0.00075; with Sitobion avenae [5] it was 0.00296; in the assay with Sitobion avenae [6] it was 0.
